Measured values taken from US8962244B2, “Compounds for modulating RNA binding proteins and uses therefor” (University of Massachusetts, priority 2009, dated 2015).
pIC50: −log10 of the molar value. Several values for one entry are separate records, joined by “and”; a condition that tells them apart may be missing. Equal values may be shown once.

Assays:
MEX-5 [1] = target: T1, MEX-5 (Caenorhabditis elegans, UniProt Q9XUB2); experiment: Fluorescence polarization screening of MEX-5 binding to fluorescein-labeled TCR2 RNA; settings: for remaining activity at 192 µM: 192 μM test compound, score = polarization relative to no-drug and no-protein controls, 0.25 = 75% inhibition, lowest score = greatest inhibition, read-out: MEX-5 score; for pIC50: further screening as described above (fluorescence polarization), dose response
T1 construct: The fragment of mex-5 containing the TZF domain (amino acids 236-350) was amplified; made in house; host or cells: Escherichia coli JM109
T1 sequence (Q9XUB2 236-350): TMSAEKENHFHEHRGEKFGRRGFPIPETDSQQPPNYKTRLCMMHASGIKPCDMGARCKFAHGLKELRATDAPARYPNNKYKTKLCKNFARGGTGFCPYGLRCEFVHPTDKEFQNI
From the text: The expression and purification of recombinant MEX-5 protein has previously been described in Pagano, J. M., Farley, B. M., McCoig, L. M. and Ryder, S. P. (2007) “Molecular basis of RNA recognition by the embryonic polarity determinant MEX-5;” J Biol Chem; 282, 8883-8894. The fragment of mex-5 containing the TZF domain (amino acids 236-350) was amplified from a commercially available ORFeome clone (Open Biosystems) and sub-cloned into the vector pMal-c (NEB), which encodes maltose binding protein as an N-terminal fusion. This construct is termed pMal-MEX-5 (236-350).
MEX-5 is expressed in Escherchia. coli JM109 liquid cultures grown at 37° C. Cultures were induced during mid log phase by the addition of 0.1 mM isopropyl 1-thio-β-D-galactopyranoside (IPTG) and allowed to grow for three hours. An amount of 100 μM zinc acetate (final concentration) was added at the time of induction. The pelleted cells were resuspended in lysis buffer (50 mM Tris pH 8.8, 200 mM NaCl, 2 mM DTT, EDTA free protease inhibitor tablet (Roche), 100 μM Zn(OAc)2) and lysed by sonication. The soluble protein was purified in three steps using standard chromatography methods: (1) amylose affinity (NEB), (2) Hi-TRAP-Q (GE Healthcare), and (3) Hi-TRAP-S (GE Healthcare). The Q buffer was composed of 50 mM Tris, pH 8.8, 20 mM-1500 mM NaCl, 2 mM DTT, and 100 μM Zn(OAc)2. The S buffer was composed of 50 mM MOPS, pH 6.0, 20 mM-1500 mM NaCl, 2 mM DTT, 100 μM Zn(OAc)2. The pure fractions, determined by coomassie-stained SDS-PAGE, were dialyzed into storage buffer (20 mM Tris, pH 8.0, 25 mM NaCl, 100 μM Zn(OAc)2, 2 mM DTT). The protein concentration was determined by measuring absorbance at 280 nm and the calculated extinction coefficient. The protein was stored at 50 μM concentration at 4° C.
All RNA oligonucleotides were chemically synthesized by Dharmacon or Integrated DNA Technologies. Upon arrival, each RNA was deprotected and stored according to the manufacturer's instructions. Prior to use, the RNA was resuspended in 10 mM Tris-HCl, pH 8.0, 0.1 mM EDTA, and the concentration determined by UV spectrophotometry using the calculated extinction coefficient at 260 nm based on the specific sequence. The sequence of the MEX-5 binding RNA (TCR2) is […] (SEQ ID NO:1). The POS-1 binding RNA (BMF018) is […] (SEQ ID NO:2). The MEX-3 binding RNA (SEQ 14) is […] (SEQ ID NO:3).
The RNA used for the small molecule screen was labeled at the 3′-end with fluorescein by Dharmacon during synthesis. In a few cases, follow up experiments were performed with post-synthetically labeled RNA. In this case, fluorescein 5-thiosemicarbazide (FTSC, Invitrogen) was used to 3′-end label each RNA after treatment with sodium periodate (see Reines, S. A. and Cantor, C. R. (1974) “New fluorescent hydrazide reagents for the oxidized 3′-terminus of RNA” Nucleic Acids Res. 1, 767-786). A representative 50 μl reaction consisted of 0.5 nanomoles RNA, 100 mM NaOAc, pH 5.1, and 5 nanomoles NaIO4. After the reaction was complete (90 minutes at room temperature), the sample was ethanol precipitated by adding 1 μl RNase free glycogen (Invitrogen 20 μg/μl), 1/20th volume of 5 M NaCl, and 2 volumes of 100% ice-cold ethanol. The resulting pellet was resuspended in 50 μl of 100 mM NaOAc, pH 5.1 containing 1 mM FTSC and was allowed to react overnight at 4° C. in the dark. The unreacted label was removed by ethanol precipitation with resuspension of the pellet in a small volume of TE, and purification over a Roche G-25 size exclusion spin column. The labeling efficiency is determined by calculating the ratio of fluorescein absorbance at 490 nm to RNA-fluorescein absorbance at 260 nm. Typical efficiencies are 60-80%.
The ability of MEX-5 to associate with RNA was monitored by fluorescence polarization using a victor V3 or victor V2V plate reader (Perkin Elmer) in 384-well FluoTrak microplates (Grenier). […]

MEX-3 = experiment: Fluorescence polarization screening of MEX-3 binding to fluorescein-labeled SEQ 14 RNA; settings: 192 μM test compound; 80 nM MBP-MEX-3, no zinc acetate; lowest score = greatest inhibition
POS-1 [2] = target: T2, POS-1 (Caenorhabditis elegans, UniProt G5EF15); experiment: Fluorescence polarization screening of POS-1 binding to fluorescein-labeled BMF018 RNA; settings: for remaining activity at 192 µM: 192 μM test compound, score = polarization relative to no-drug and no-protein controls, 0.25 = 75% inhibition, lowest score = greatest inhibition, read-out: POS-1 score; for pIC50: further screening as described above (fluorescence polarization), dose response
T2 construct: 6-his tag (N); made in house; host or cells: E. coli BL21 (DE3) Gold
T2 sequence (G5EF15 80-180): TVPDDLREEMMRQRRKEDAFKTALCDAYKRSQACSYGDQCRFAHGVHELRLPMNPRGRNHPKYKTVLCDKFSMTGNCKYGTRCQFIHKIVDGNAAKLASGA

MEX-5 [3] = target: T1, MEX-5; experiment: Dose response gel shift assay, MEX-5 with TCR2 RNA; format: binding; settings: 120 nM MEX-5, 2-3 nM fluorescein labeled TCR2 RNA
Protocol: (§1) A further dose response assay was performed on select compounds of the invention as described below. A sub-saturating concentration of MEX-5 or POS-1 (120 nM) was equilibrated with limiting fluorescein labeled RNA (2-3 nM, TCR2 RNA or MEX-3 UTR fragment RNA respectively) in the presence of varying concentrations of compound. Following equilibration, the reactions were loaded onto a 5% slab polyacrylamide gel and subjected to electrophoresis for about 1 hour to separate protein-RNA complex from free RNA. The gel was scanned on a FUJI FLA-5000 imager, and the fraction of bound RNA determined by dividing the intensity of the bound RNA by the intensity of the bound RNA plus the free RNA. The […] was plotted as a function of compound concentration and fit to a sigmoidal dose response function in order to determine the IC50, the concentration that gives half maximal inhibition.

POS-1 [4] = target: T2, POS-1; experiment: Dose response gel shift assay, POS-1 with MEX-3 UTR fragment RNA; format: binding; settings: 120 nM POS-1, 2-3 nM fluorescein labeled MEX-3 UTR fragment RNA
Protocol: as §1

[5] = tested on: Caenorhabditis elegans N2 strain worms; experiment: C. elegans viability/sterility assay (gonad microinjection); format: in vivo
Protocol: Young adult worms with a single row of embryos were selected for microinjection. Each worm was mounted on a dried agarose padded coverslip in halocarbon oil. Varying concentrations of compound, or a DMSO control, were microinjected into each gonad arm of the worm using an inverted microscope with DIC optics. Injected worms were then allowed to recover for 2-3 hours at 15° C. Approximately 10-40 worms were injected per compound tested. Individual worms that survived microinjection were singled out onto new NGM agar plates and allowed to recover overnight at 15° C. The plates were moved to room temperature the next morning. At the end of the day, the adult worm was transferred to a new plate. The embryos laid on each plate were monitored for hatching and inspected for unusual phenotypes. Nematode fertility was estimated by counting the total number of progeny on both plates. Viability was estimated by monitoring the extent of hatching.

[6] = count per individual injected worm (Worm No. 1-6), Day 2

Row | remaining activity at 192 µM (MEX-5 [1]) | MEX-3 score (MEX-3) | remaining activity at 192 µM (POS-1 [2]) | pIC50 (MEX-5 [1]) | pIC50 (MEX-5 [3]) | pIC50 (POS-1 [4]) | pIC50 (POS-1 [2]) | SMILES | further results
1 | 8.11% | 0.1624 | 3.61% |  |  |  |  | O=C(O)c1ccc(NC(=S)NC(=O)c2ccc(I)cc2)cc1 [AE] | 
2 | 18.4% |  |  | 3.27 | 3.96 |  |  | COc1ccc(Cl)cc1C(=O)Nc1ccc(S(=O)(=O)Nc2nccs2)cc1 [BK] | 
3 | 19% |  |  | 4.12 | 3.92 | 4.48 | 4.80 | Sc1nnc(COc2cccc3ccccc23)n1-c1ccccc1 [BO] | 
4 | 19.9% |  |  | 4.41 | 4.11 | 3.82 | 3.09 | CCS(=O)(=O)Nc1ccccc1NS(=O)(=O)CC [BR] | 
5 | -2.09% |  | -2.48% | 4.48 | 5.02 | 5.29 | 5.15 | CC(=O)Oc1ccccc1-c1nc2s/c(=C3\C(=O)N(CC(N)=O)c4ccccc43)c(=O)n2n1 [C] | 
6 |  |  | 7.5% |  |  | 3.59 | 3.52 | COc1nnc(-c2ccc(C)c(S(=O)(=O)NCC3CCCO3)c2)c2ccccc12 (centres unmarked) [DD] | 
7 |  |  | 10.9% | 3.80 | 3.77 |  |  | O=C(CSc1nc2ccccc2s1)Nc1ccc(S(=O)(=O)Nc2nccs2)cc1 [DG] | 
8 |  |  | 13.8% | 5.46 | 5.42 |  |  | O=C1C2CC=C(Cl)CC2C(=O)N1c1nnc[nH]1 (centres unmarked) [DJ] | 
9 |  | 0.0674 |  |  |  |  |  | COc1ccc(CCNC(=O)c2ccc(C(=O)NCCc3ccc(OC)c(OC)c3)nc2)cc1OC [EX] | 
10 |  | 0.08965 |  |  |  |  |  | CCOc1ccc(NS(=O)(=O)c2ccc(C)c(C(N)=O)c2)cc1 [EY] | 
11 |  | 0.124 |  |  |  |  |  | O=[N+]([O-])c1cccc(/C(=N\O)Nc2nnc(-c3cccnc3)s2)c1 [EZ] | 
12 | -1.07% |  | -1.62% | 5.82 | 5.70 | 6.77 | 6.49 | COc1ccc(S(=O)(=O)Nc2ccccc2NS(=O)(=O)c2ccc(OC)cc2)cc1 [E] | Day 1 Hatchlings ([5]; count per individual injected worm (Worm No. 1-6), Day 1): 11 and 34 and 2 and 6 and 4 and 67; Day 2 Embryos [5, 6]: 0; Day 2 Hatchlings [5, 6]: 0; Day 1 Embryos ([5]; count per individual injected worm (Worm No. 1-6), unhatched embryos on plate, Day 1): 1 and 0 (4×) and 2; Effect on worm fertility ([5]; microinjection into each gonad arm, compared with DMSO controls): may sterilize worms at a stage prior to fertilization
13 |  | 0.2093 |  |  |  |  |  | Cc1ccc(C(CC(=O)N2CCCC2)c2ccco2)cc1 (centres unmarked) [FA] | 
14 |  | 0.2585 |  |  |  |  |  | CCOC(=O)c1sc(NC(=S)NC(=O)c2cc3ccccc3o2)c(C(=O)OCC)c1C [FB] | 
